Assays:
Assay type in all cases: cell-based
KRAS protein [1] = biological target: T1, KRAS protein (Homo sapiens, UniProt P01116, G12C); assay: HIBIT degradation assay, MIA PaCa-2 cells; conditions: 24 h, HiBiT signal normalized to CTG signal; for Effect on KRAS Protein Degradation, MIA PaCa-2, 3 μM: compound at 3 μM; for Effect on KRAS Protein Degradation, MIA PaCa-2, 5 μM: compound at 5 μM
T1 construct: engineered to express a Hobbit-tagged endogenous KRAS protein; endogenous in cells; host or cells: MIA PaCa-2, endogenous KRAS locus engineered with a HiBiT tag
T1 sequence (P01116 whole entry G12C): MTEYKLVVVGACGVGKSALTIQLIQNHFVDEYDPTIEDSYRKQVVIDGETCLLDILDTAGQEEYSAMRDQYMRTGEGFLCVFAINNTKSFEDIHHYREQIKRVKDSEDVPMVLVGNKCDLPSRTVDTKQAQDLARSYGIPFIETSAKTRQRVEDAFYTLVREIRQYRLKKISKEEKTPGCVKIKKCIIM
Protocol: (§1) HEK293, MIA PaCa-2, AsPc-1, SW620, and H647 cells were engineered to express a […] endogenous KRAS protein. The HEK293 and MIA PaCa-2 cells were cultured in DMEM media supplemented with 10% fetal bovine serum, streptomycin, and penicillin. The AsPc-1, SW620, and H647 were cultured in RPMI media supplemented with 10% fetal bovine serum, streptomycin, and penicillin. The cells were seeded in white walled 96-well plates at 20,000 cells/well in 100 μL culture media in duplicate plates. After incubated at 37° C. under 5% CO2 overnight, the cells were treated with DMSO (control) or a compound, followed by the addition of 100 μL culture media to each well. After the cells were incubated for 24 h at 37° C. under 5% C02, 150 μL media were removed from each well and 50 μL NANOGLO-LGBIT lytic reagent were added to each well, and 50 μL CELLTITER-GLO (CTG) reagent was added to the duplicate plate. Following a 10-minute incubation with shaking, luminescence was measured using a Perkin Elmer ENVISION multimode plate reader. HiBiT signal was normalized to CTG signal. The results are summarized in Table 3, where “A” represents a percentage degradation value of no less than 50%; “B” represents a percentage degradation value of less than 50% and no less than 25%; “C” represents a percentage degradation value of less than 25% and no less than 10%; and “D” represents a percentage degradation value of less than 10%.

KRAS protein [2] = biological target: T2, KRAS protein (Homo sapiens, UniProt P01116); assay: HIBIT degradation assay, HEK293 cells; conditions: 24 h, HiBiT signal normalized to CTG signal
T2 construct: engineered to express a Hobbit-tagged endogenous KRAS protein; endogenous in cells; host or cells: HEK293, endogenous KRAS locus engineered with a HiBiT tag
T2 sequence (P01116 1-188 isoform P01116-2): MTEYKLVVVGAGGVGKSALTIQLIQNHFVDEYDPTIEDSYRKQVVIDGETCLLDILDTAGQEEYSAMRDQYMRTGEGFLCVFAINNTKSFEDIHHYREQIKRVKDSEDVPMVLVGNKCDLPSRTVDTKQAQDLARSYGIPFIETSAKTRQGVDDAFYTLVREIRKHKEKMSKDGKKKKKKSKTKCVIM
Protocol: as §1

KRAS protein [3] = biological target: T3, KRAS protein (Homo sapiens, UniProt P01116, G12D); assay: HIBIT degradation assay, AsPC-1 cells; conditions: 24 h, HiBiT signal normalized to CTG signal; for Effect on KRAS Protein Degradation, AsPC-1, 3 μM: compound at 3 μM; for Effect on KRAS Protein Degradation, AsPC-1, 5 μM: compound at 5 μM
T3 construct: engineered to express a Hobbit-tagged endogenous KRAS protein; endogenous in cells; host or cells: AsPC-1, endogenous KRAS locus engineered with a HiBiT tag
T3 sequence (P01116 1-188 isoform P01116-2 G12D): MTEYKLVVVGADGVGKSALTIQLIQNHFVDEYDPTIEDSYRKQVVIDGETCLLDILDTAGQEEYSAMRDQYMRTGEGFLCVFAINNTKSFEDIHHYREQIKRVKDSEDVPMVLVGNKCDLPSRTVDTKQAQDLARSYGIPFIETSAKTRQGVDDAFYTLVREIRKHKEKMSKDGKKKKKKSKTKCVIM
Protocol: as §1

Molm-13 cells = assay: Cell viability assay, inhibition of Molm-13 cells; conditions: Homo sapiens
Protocol: [Worded in the source for another cell line; this cell line is reported under the same test.] H358, H23, SW48, and AsPC-1 cells were cultured in RPMI 1640 media supplemented with 10% fetal bovine serum, streptomycin, and penicillin. Lovo and SW480 cells were cultured in DMEM media supplemented with 10% fetal bovine serum, streptomycin, and penicillin. The cell lines were plated in their respective medium supplemented with 2.5% fetal bovine serum, streptomycin, and penicillin. All cell lines were plated in white walled 96-well plates at 2,000 cells/well or 384-well plates at 500 cells/well, except Lovo, which were plated at 4,000 or 1,000 cells/well, respectively. The cells were incubated in DMSO (control) or a compound for 3 days at 37° C. under 5% C02. A CELLTITER-GLO® reagent (100 μL) was then added to each well. After a 10 min incubation with shaking, luminescence was measured using an ENVISION® multimode plate reader. IC50 values are summarized in Table 1 and percentages of inhibition are summarized in Table 2, where compound T1 is 2-(4-(2-methyl-3,5-diphenylpyrazolo[1,5-a]pyrimidin-7-yl)piperazin-1-yl)ethan-1-ol.

SMILES	Effect on KRAS Protein Degradation, MIA PaCa-2, 3 μM (KRAS protein [1])	Effect on KRAS Protein Degradation, MIA PaCa-2, 5 μM (KRAS protein [1])	Effect on KRAS Protein Degradation, HEK293, 3 μM (KRAS protein [2]; compound at 3 μM)	Effect on KRAS Protein Degradation, HEK293, 5 μM (KRAS protein [2]; compound at 5 μM)	Effect on KRAS Protein Degradation, AsPC-1, 3 μM (KRAS protein [3])	Effect on KRAS Protein Degradation, AsPC-1, 5 μM (KRAS protein [3])	inhibition at 1 µM (Molm-13 cells; compound at 1 μM) [%]	inhibition at 3 µM (Molm-13 cells; compound at 3 μM) [%]
Cc1nn2c(N3CCN(CCO)CC3)cc(-c3ccc(F)cc3)nc2c1-c1cccc(CCCCCN2CCN(C(=O)CNc3ccc4c(C5CCC(=O)NC5=O)nn(C)c4c3)CC2)c1 (stereo not drawn) [Compound D19, 3-(6-((2-(4-(5-(3-(5-(4-Fluorophenyl)-7-(4-(2-hydroxyethyl)piperazin-1-yl)-2-methylpyrazolo[1,5-a]pyrimidin-3-yl)phenyl)pentyl)piperazin-1-yl)-2-oxoethyl)amino)-1-methyl-1H-indazol-3-yl)piperidine-2,6-dione]	D (a percentage degradation value of less than 10%)	C (a percentage degradation value of less than 25% and no less than 10%)	D (a percentage degradation value of less than 10%)	D (a percentage degradation value of less than 10%)	C (a percentage degradation value of less than 25% and no less than 10%)	C (a percentage degradation value of less than 25% and no less than 10%)	–	–
Cc1nn2c(N3CCN(CCO)CC3)cc(-c3ccccc3)nc2c1-c1cccc(CCCN2CCN(C(=O)COc3cccc4c(C5CCC(=O)NC5=O)nn(C)c34)CC2)c1 (stereo not drawn) [Compound D20, 3-(7-(2-(4-(3-(3-(7-(4-(2-Hydroxyethyl)piperazin-1-yl)-2-methyl-5-phenyl-pyrazolo[1,5-a]pyrimidin-3-yl)phenyl)propyl)piperazin-1-yl)-2-oxoethoxy)-1-methyl-1H-indazol-3-yl)piperidine-2,6-dione]	C (a percentage degradation value of less than 25% and no less than 10%)	C (a percentage degradation value of less than 25% and no less than 10%)	–	–	D (a percentage degradation value of less than 10%)	C (a percentage degradation value of less than 25% and no less than 10%)	0	71

Source: US20240190883A1, “KRAS PROTEIN DEGRADERS, PHARMACEUTICAL COMPOSITIONS THEREOF, AND THEIR THERAPEUTIC APPLICATIONS” (BioTheryX, Inc., priority 2021, published 2024)
